# Measurements taken from patent publication US20190274290A1, “GENETICALLY MODIFIED MOUSE MODEL FOR HUMAN HEPATOCYTE XENOTRANSPLANTATION” (The Jackson Laboratory, priority 2016, published 2019).
# Experiments:
# [1] = system: NSG-PiZ mice; assay: Percentage of human hepatocytes in engrafted mouse liver (flow cytometry, anti-HLA-ABC / CD324); assay type: in vivo; details: MCT-treated NSG-PiZ mice; flow cytometry with anti-HLA antibody
# Protocol: After dissociation, cells were stained on ice for 30 minutes with anti-mouse/human CD324 (Biolegend) and anti-HLA-ABC (BD Biosciences) antibodies to determine human hepatocyte percentage. Cells were then washed twice with 1×PBS and resuspended in 1×PBS supplemented with 0.5% FHS and 2 mM EDTA. Cells were acquired using FACS-LSRII flow cytometer (BD Biosciences) and analyzed with FlowJo software (version 10.1; Tree Star Inc.).
# (§1) All recipient mice were males, age 6-10 weeks, and they were anesthetized by isoflurane inhalation in a closed ventilation chamber. For intrasplenic injection, an incision was made on mouse left paralumbar fossa in order to expose the spleen. […] The exposed spleen was returned to the abdominal cavity and the incision was closed with an absorbable suture (4-0 Vicryl). Vet Bond was applied topically to seal the skin incision. For partial hepatectomy, median-line incision was made to expose the liver. The median lobe of the liver and the left lateral lobe were seemly tied off with 4-0 silk Blake braided suture and excised. Two-thirds of the total liver was removed by partial hepatectomy. The remaining liver was gently returned to the abdominal cavity. Finally, the opposing sections of the abdominal wall were aligned at the ventral midline, and an absorbable suture (4-0 Vicryl) was applied to close the incision. […]
# [2] = system: NSG-PiZ mice; assay: Human hepatocyte engraftment in NSG-PiZ mice, serum human albumin ELISA; assay type: in vivo, mouse; details: for human hepatocyte engraftment (serum human albumin), comparison of groups: two doses of 50 mg/kg intraperitoneal MCT 14 and 7 days before engraftment, 50 mg/kg
# Protocol: Human albumin levels were evaluated post-engraftment by using the human Albumin ELISA quantitation set (Bethyl Labs) as described by the manufacturer. For all assays, after incubation with the HRP-conjugated antibody, 3,3′,5,5′-tetramethylbenzidine (TMB) peroxidase substrate (KPL) was applied, and the reactions were stopped by adding 2 […] (Fisher Scientific) after 15-30 min. Plates were read at […] on a VersaMax microplate reader (Molecular Devices).
# Animals were pre-treated with 50 mg/kg MCT (Oakwood Chemical) intraperitoneally 7 days or 14 and 7 days prior to engraftment or treated at the time of engraftment with 1 μg purified NA/LE hamster anti-mouse CD95 antibody (first apoptosis signal [FAS], BD PharMingen) intravenously.
# To investigate additional methods for increased human hepatocyte engraftment, two approaches used in the liver xenograft field were tested: monocrotaline (MCT) and a mouse-specific anti-Fas antigen (CD95) antibody. MCT is a pyrrolizidine plant alkaloid with known endothelial toxicity in the lung, liver, and kidney. […] The anti-CD95 antibody recognizes mouse Fas and leads to cytolytic activity of cells expressing mouse Fas by inducing apoptosis of mouse hepatocytes and other cells.
# as §1, with “cavity.” for “cavity. Finally, the opposing sections of the abdominal wall were aligned at the ventral midline, and an absorbable suture (4-0 Vicryl) was applied to close the incision.”
compound,measurement,setting,value
"C[C@H]1C(=O)O[C@@H]2CCN3CC=C(COC(=O)[C@](C)(O)[C@]1(C)O)[C@H]23 [MCT, monocrotaline]",hepatocytes of human origin,[1],at least 25%
same,human hepatocyte engraftment (serum human albumin),"[2]; MCT 50 mg/kg before engraftment or 1 μg anti-mouse CD95 antibody at engraftment, versus intrasplenic engraftment alone",significantly increased
same,"human hepatocyte engraftment (serum human albumin), comparison of groups",[2],greatest engraftment
same,"human hepatocyte engraftment (serum human albumin), comparison of groups",[2]; listed as monocrotaline,greatest serum human albumin concentrations
